Literature values as cited in article PMC9516332 (Frontiers in Oncology, 2022).

What was measured:
[1] = molecular target: panel of 255 wild-type kinases (Homo sapiens, UniProt P51957); details: NEK4; 1 µmol/L single concentration; ref DOI: 10.1371/journal.pone.0092146; cited from earlier work
[2] = molecular target: panel of 255 wild-type kinases (Homo sapiens, UniProt Q8TDX7); details: NEK7; 1 µmol/L single concentration; ref DOI: 10.1371/journal.pone.0092146; cited from earlier work
[3] = molecular target: panel of 255 wild-type kinases (Homo sapiens, UniProt P45984); details: kinase JNK2; 1 µmol/L single concentration; ref DOI: 10.1371/journal.pone.0092146; cited from earlier work
[4] = molecular target: panel of 255 wild-type kinases (Homo sapiens, UniProt P22455); details: kinase FGFR4; 1 µmol/L single concentration; ref DOI: 10.1371/journal.pone.0092146; cited from earlier work
[5] = molecular target: panel of 255 wild-type kinases (Homo sapiens, UniProt P54764); details: kinase EPHA4; 1 µmol/L single concentration; ref DOI: 10.1371/journal.pone.0092146; cited from earlier work
[6] = molecular target: T1, panel of 255 wild-type kinases (Homo sapiens, UniProt P41743); details: kinase PKCι; 1 µmol/L single concentration; ref DOI: 10.1371/journal.pone.0092146; cited from earlier work
T1 sequence (P41743 1-596): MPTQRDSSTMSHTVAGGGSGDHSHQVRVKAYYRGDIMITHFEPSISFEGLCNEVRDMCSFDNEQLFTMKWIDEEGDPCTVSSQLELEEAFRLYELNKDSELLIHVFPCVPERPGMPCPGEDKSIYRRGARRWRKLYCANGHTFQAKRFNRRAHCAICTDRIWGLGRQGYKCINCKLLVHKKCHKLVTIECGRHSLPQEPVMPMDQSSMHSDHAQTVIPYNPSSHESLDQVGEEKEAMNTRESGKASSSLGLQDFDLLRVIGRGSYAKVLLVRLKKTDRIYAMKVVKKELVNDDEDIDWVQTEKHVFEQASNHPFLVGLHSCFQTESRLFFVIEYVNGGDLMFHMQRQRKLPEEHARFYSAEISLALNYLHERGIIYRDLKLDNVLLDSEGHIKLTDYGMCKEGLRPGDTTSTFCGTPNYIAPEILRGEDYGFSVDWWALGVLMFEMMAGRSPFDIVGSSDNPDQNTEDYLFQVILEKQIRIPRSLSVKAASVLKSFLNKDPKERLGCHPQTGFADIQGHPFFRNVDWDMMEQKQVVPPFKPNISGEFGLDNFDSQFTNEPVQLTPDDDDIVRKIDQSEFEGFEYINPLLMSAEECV

[7] = molecular target: panel of 255 wild-type kinases (Homo sapiens, UniProt Q9H2X6); details: kinase HIPK2; 1 µmol/L single concentration; ref DOI: 10.1371/journal.pone.0092146; cited from earlier work
[8] = molecular target: T2, panel of 255 wild-type kinases (Homo sapiens, UniProt Q9H093); details: NuaK2; 1 µmol/L single concentration; ref DOI: 10.1371/journal.pone.0092146; cited from earlier work
T2 sequence (Q9H093 1-628): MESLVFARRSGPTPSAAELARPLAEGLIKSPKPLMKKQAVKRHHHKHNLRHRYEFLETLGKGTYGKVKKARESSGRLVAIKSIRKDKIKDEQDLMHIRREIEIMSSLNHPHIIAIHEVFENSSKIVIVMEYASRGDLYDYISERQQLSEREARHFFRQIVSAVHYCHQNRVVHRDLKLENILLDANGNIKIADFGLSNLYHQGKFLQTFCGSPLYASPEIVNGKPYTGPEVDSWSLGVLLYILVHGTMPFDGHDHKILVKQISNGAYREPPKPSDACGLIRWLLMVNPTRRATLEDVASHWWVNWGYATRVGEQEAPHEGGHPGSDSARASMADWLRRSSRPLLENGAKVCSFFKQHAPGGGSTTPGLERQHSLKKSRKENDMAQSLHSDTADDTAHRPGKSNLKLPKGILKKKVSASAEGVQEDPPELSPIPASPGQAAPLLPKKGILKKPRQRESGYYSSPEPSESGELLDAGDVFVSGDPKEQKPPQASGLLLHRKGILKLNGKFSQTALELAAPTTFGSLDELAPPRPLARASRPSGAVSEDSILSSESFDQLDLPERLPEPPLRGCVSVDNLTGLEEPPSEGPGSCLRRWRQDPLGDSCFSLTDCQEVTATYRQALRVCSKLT

[9] = molecular target: T3, panel of 255 wild-type kinases (Homo sapiens, UniProt Q9UHD2); details: kinase TBK1; 1 µmol/L single concentration; ref DOI: 10.1371/journal.pone.0092146; cited from earlier work
T3 sequence (Q9UHD2 1-729): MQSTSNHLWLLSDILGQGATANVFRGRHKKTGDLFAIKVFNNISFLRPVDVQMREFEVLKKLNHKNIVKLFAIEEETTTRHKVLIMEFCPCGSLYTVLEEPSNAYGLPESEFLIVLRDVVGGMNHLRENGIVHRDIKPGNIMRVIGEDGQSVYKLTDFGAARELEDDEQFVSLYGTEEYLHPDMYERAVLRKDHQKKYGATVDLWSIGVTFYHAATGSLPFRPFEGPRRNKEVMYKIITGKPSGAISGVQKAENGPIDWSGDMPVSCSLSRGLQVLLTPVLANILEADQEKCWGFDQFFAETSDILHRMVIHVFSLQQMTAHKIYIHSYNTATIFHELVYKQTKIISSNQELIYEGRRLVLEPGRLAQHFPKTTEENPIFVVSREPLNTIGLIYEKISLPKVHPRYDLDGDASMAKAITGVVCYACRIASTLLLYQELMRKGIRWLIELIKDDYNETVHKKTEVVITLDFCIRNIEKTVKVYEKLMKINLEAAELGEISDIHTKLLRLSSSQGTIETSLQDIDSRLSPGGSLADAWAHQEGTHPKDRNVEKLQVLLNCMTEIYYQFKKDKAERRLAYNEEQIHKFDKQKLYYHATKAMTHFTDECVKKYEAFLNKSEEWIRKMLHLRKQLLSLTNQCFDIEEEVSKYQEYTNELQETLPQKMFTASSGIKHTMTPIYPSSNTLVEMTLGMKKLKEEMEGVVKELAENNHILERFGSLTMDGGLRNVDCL

CCCS(=O)(=O)Nc1ccc(F)c(C(=O)c2c[nH]c3ncc(-c4ccc(Cl)cc4)cc23)c1F [vemurafenib]
%-inhibition, NEK4 [1]: -0.416%
%-inhibition, NEK7 [2]: -3.56%
%-inhibition at 1 µmol/L, JNK2 [3]: -0.0632%
%-inhibition at 1 µmol/L, FGFR4 [4]: 5%
%-inhibition at 1 µmol/L, EPHA4 [5]: -2%
%-inhibition at 1 µmol/L, PKCι [6]: -16%
%-inhibition at 1 µmol/L, HIPK2 [7]: -5%
%-inhibition, NuaK2 [8]: 4.36%
%-inhibition at 1 µmol/L, TBK1 [9]: -0.81%
